This is an account of results in patent US9663508B2, “Biaryl acyl-sulfonamide compounds as sodium channel inhibitors” (AMGEN INC., priority 2013, dated 2017).

Where two headings read alike, the source gives them in different places.

Usually IC50 stands for the concentration at which inhibition is half-maximal.

For this test, the target named is human Nav1.7 (Homo sapiens (Human), UniProt Q15858). The test is described as follows: Nav 1.7 in vitro PatchXpress (PX) assay. Format: cell-based.
human Nav1.7, sequence (Q15858 whole entry): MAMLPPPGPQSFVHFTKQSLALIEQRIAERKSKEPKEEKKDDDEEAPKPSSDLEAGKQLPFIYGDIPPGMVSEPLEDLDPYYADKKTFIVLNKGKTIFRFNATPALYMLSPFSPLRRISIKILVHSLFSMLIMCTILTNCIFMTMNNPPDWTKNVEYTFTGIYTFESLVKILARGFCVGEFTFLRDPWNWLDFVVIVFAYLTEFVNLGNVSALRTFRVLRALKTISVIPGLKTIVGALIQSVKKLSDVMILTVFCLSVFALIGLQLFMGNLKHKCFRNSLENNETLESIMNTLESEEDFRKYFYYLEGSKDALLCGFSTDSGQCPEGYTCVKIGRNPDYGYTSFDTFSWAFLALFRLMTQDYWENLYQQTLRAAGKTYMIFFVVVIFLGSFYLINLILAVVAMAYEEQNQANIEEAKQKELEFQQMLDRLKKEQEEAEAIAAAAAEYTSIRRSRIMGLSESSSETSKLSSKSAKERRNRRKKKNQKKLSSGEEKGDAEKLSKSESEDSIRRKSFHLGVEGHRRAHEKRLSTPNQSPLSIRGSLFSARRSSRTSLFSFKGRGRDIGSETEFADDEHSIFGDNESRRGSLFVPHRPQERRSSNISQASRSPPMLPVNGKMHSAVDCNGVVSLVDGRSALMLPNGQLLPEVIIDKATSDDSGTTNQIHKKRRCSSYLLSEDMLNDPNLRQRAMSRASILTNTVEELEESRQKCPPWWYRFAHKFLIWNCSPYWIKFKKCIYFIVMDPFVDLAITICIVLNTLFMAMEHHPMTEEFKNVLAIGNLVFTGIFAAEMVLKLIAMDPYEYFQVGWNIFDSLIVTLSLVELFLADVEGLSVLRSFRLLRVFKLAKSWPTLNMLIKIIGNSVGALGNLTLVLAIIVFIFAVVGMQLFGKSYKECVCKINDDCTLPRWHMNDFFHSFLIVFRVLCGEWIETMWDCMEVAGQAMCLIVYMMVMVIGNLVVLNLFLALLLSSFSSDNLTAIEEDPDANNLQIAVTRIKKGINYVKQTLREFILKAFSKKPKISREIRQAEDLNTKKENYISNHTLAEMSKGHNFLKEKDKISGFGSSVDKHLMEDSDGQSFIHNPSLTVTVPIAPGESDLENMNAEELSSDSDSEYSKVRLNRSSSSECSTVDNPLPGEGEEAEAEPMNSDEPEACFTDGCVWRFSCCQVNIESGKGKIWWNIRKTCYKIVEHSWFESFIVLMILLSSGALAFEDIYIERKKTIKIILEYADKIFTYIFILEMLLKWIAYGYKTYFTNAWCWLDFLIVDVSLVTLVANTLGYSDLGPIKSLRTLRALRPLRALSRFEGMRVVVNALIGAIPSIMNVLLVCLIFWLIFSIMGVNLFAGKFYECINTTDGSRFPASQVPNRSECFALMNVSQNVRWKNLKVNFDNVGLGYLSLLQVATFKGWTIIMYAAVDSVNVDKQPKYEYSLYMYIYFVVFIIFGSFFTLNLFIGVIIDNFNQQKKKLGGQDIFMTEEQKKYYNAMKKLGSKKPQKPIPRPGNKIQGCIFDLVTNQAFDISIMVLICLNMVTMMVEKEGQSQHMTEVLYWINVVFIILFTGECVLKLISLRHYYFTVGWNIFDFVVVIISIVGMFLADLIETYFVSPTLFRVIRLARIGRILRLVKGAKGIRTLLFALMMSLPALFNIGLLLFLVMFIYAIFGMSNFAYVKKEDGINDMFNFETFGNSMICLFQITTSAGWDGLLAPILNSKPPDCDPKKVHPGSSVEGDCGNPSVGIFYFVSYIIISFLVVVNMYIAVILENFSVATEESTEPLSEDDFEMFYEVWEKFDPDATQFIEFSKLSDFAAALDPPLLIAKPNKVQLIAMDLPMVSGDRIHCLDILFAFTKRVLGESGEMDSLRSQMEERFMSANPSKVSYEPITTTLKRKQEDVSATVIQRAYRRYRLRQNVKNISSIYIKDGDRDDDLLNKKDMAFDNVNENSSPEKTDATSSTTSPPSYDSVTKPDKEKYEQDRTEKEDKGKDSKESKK

In the case of `COc1cc(C(=O)NS(C)(=O)=O)ccc1-c1cnc(Oc2cccc(Cl)c2C)c(Cl)c1` [Example 579, 4-(5-chloro-6-(3-chloro-2-methylphenoxy)-3-pyridinyl)-3-methoxy-N-(methylsulfonyl)benzamide], the IC50 turned out to be 48.6 nM. `COc1cc(C(=O)NS(C)(=O)=O)c(F)cc1-c1cnc(OCC2(C)CCCCC2)c(Cl)c1` [Example 714, 4-(5-chloro-6-((1-methylcyclohexyl)methoxy)-3-pyridinyl)-2-fluoro-5-methoxy-N-(methylsulfonyl)benzamide] gave a concentration for half-maximal inhibition (IC50) (in-vitro Nav 1.7 PX data) of 98.6 nM. Where the note is “in-vitro Nav 1.7 PX data”, `Cc1cc(C(=O)NS(C)(=O)=O)c(F)cc1-c1cnc(OC(C)(C)C)c(Cl)c1` [Example 816, 4-(6-tert-butoxy-5-chloro-3-pyridinyl)-2-fluoro-5-methyl-N-(methylsulfonyl)benzamide] displayed an IC50 of 156 nM. With `COc1cc(C(=O)NS(C)(=O)=O)ccc1-c1cnc(Oc2ccc(Cl)c(C(F)(F)F)c2)c(Cl)c1` [Example 370, 4-(5-chloro-6-(4-chloro-3-(trifluoromethyl)phenoxy)-3-pyridinyl)-3-methoxy-N-(methylsulfonyl)benzamide], the midpoint of inhibition, the IC50, lay at 57 nM.

In turn, `CS(=O)(=O)NC(=O)c1cc(F)c(-c2cnc(Oc3c(Cl)cc(F)cc3Cl)c(Cl)c2)cc1F` [Example 572, 4-(5-chloro-6-(2,6-dichloro-4-fluorophenoxy)-3-pyridinyl)-2,5-difluoro-N-(methylsulfonyl)benzamide] had an IC50 of 57.6 nM. For `CS(=O)(=O)NC(=O)c1ccc(-c2cnc(Oc3cc(Cl)cc(Cl)c3)c(Cl)c2)c(OC(F)F)c1` [Example 461, 4-(5-chloro-6-(3,5-dichlorophenoxy)-3-pyridinyl)-3-(difluoromethoxy)-N-(methylsulfonyl)benzamide], the IC50 was 33.7 nM. This IC50 is about 1.7-fold lower than that of the molecule before. Molecule `COc1cc(C(=O)NS(C)(=O)=O)c(F)cc1-c1cnc(O[C@@H](C)C2CCC2)c(Cl)c1` (single isomer, unassigned) [Example 767] returned an IC50 (in-vitro Nav 1.7 PX data) of 77.6 nM. Consider `CS(=O)(=O)NC(=O)c1cc(OC(F)F)c(-c2cnc(OC3CCC3)c(Cl)c2)cc1F` [Example 781, 4-(5-chloro-6-(cyclobutyloxy)-3-pyridinyl)-5-(difluoromethoxy)-2-fluoro-N-(methylsulfonyl)benzamide], for which, where the note is “in-vitro Nav 1.7 PX data”, the half-inhibitory concentration (IC50) stood at 145 nM. `Cc1cc(C(=O)NS(C)(=O)=O)c(F)cc1-c1cnc(N2CCC[C@@H]2c2cccc(C(F)(F)F)c2)c(Cl)c1` [Example 655, 4-(5-chloro-6-((2R)-2-(3-(trifluoromethyl)phenyl)-1-pyrrolidinyl)-3-pyridinyl)-2-fluoro-5-methyl-N-(methylsulfonyl)benzamide, 4-(5-chloro-6-((2S)-2-(3-(trifluoromethyl)phenyl)-1-pyrrolidinyl)-3-pyridinyl)-2-fluoro-5-methyl-N-(methylsulfonyl)benzamide] came in with a concentration for half-maximal inhibition (IC50) of 102 nM. In other words, the sub-micromolar range. Where the note is “in-vitro Nav 1.7 PX data”, `COc1cc(C(=O)NS(C)(=O)=O)c(F)cc1-c1cnc(Oc2c(F)ccc(Cl)c2F)c(Cl)c1` [Example 744, 4-(5-chloro-6-(3-chloro-2,6-difluorophenoxy)-3-pyridinyl)-2-fluoro-5-methoxy-N-(methylsulfonyl)benzamide] displayed a half-inhibitory concentration (IC50) of 67.8 nM. Regarding `COc1cc(C(=O)NS(C)(=O)=O)c(F)cc1-c1cnc(Sc2cc(C)cc(C)c2)c(Cl)c1` [Example 729, 4-(5-chloro-6-((3,5-dimethylphenyl)sulfanyl)-3-pyridinyl)-2-fluoro-5-methoxy-N-(methylsulfonyl)benzamide], under “in-vitro Nav 1.7 PX data”, the 50% inhibitory concentration (IC50) was 69.5 nM. This IC50 and that of the molecule before are within 1.5-fold of each other.

Consider `CC[C@@H](Oc1ncc(-c2cc(F)c(C(=O)NS(C)(=O)=O)cc2OC)cc1Cl)C(F)(F)F` [Example 736, 4-(5-chloro-6-(((1R)-1-(trifluoromethyl)propyl)oxy)-3-pyridinyl)-2-fluoro-5-methoxy-N-(methylsulfonyl)benzamide], for which the IC50 (in-vitro Nav 1.7 PX data) stood at 84 nM. Turning to `COc1cc(C(=O)NS(C)(=O)=O)c(F)cc1-c1cnc(Oc2ccc(F)cc2F)c(Cl)c1` [Example 742, 4-(5-chloro-6-(2,4-difluorophenoxy)-3-pyridinyl)-2-fluoro-5-methoxy-N-(methylsulfonyl)benzamide], half-maximal inhibition (in-vitro Nav 1.7 PX data) (IC50) was put at 94 nM.
